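Dose response: 5 concentrations. Exposure: 48 h. Format: 96-well plates. Endpoint: linear interpolation; highest concentration if not reached. TGI: total growth inhibition.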
Experiments:
Assay in all cases: NCI-60 cell line screen, 48 h
[1] = tested on: HOP-92 NSCLC
[2] = tested on: LOX IMVI melanoma
[3] = tested on: MALME-3M melanoma
[4] = tested on: MCF7 breast
[5] = tested on: MDA-N
[6] = tested on: NCI-H522 lung
[7] = tested on: RPMI-8226 leukemia
[8] = tested on: SW-620 colon
[9] = tested on: U251 CNS
[10] = tested on: UACC-257 melanoma

CCCCC[C@H]1CCCCCCCCCC(=O)OC2C(O[C@@H]3OC(C)[C@H](OC(=O)[C@@H](C)CC)C(O[C@@H]4OC(C)[C@H](O)C(O)[C@@H]4O)[C@@H]3OC(=O)[C@H](C)CC)[C@H](OC3C(O)[C@@H](O)C(C)O[C@H]3O1)OC(CO)[C@H]2O (stereo not given in full)
TGI [1]: 37.1 µM | TGI [2]: 31.4 µM | TGI [3]: 28.8 µM | TGI [4]: 34.7 µM | TGI [5]: 31.4 µM | TGI [6]: 34.2 µM | TGI [7]: 30.5 µM | TGI [8]: 30.9 µM | TGI [9]: 32.1 µM | TGI [10]: 29.2 µM

COC(=O)C(NC(=O)OC(C)(C)C)P(=O)(OC)OC (stereo not given)
TGI [1]: > 100 µM | TGI [2]: > 100 µM | TGI [3]: > 100 µM | TGI [4]: > 100 µM | TGI [5]: > 100 µM | TGI [6]: > 100 µM | TGI [7]: > 100 µM | TGI [8]: > 100 µM | TGI [9]: > 100 µM | TGI [10]: > 100 µM

COc1cc(/C=N/NC2=NCCN2)ccc1O
TGI [1]: > 100 µM | TGI [2]: > 100 µM | TGI [3]: > 100 µM | TGI [4]: > 100 µM | TGI [5]: > 100 µM | TGI [6]: > 100 µM | TGI [7]: > 100 µM | TGI [8]: > 100 µM | TGI [9]: > 100 µM | TGI [10]: > 100 µM

CN1CCN([C@H]2C[C@H]3[C@@H]4CC=C5C[C@@H](O)CC[C@]5(C)[C@H]4CC[C@]3(C)[C@H]2O)CC1
TGI [1]: > 100 µM | TGI [2]: > 57.3 µM | TGI [3]: > 58.1 µM | TGI [4]: > 63.2 µM | TGI [5]: 34.6 µM | TGI [6]: > 100 µM | TGI [7]: 50.6 µM | TGI [8]: 49.7 µM | TGI [9]: 32.8 µM | TGI [10]: > 69.3 µM

Cc1ccc(S[C@@H](C)[C@@](O)(C(N)=O)c2ccccc2)cc1
TGI [1]: 37.6 µM | TGI [2]: 33.7 µM | TGI [3]: 42.8 µM | TGI [4]: > 100 µM | TGI [5]: > 100 µM | TGI [6]: 33 µM | TGI [7]: 74.8 µM | TGI [8]: > 100 µM | TGI [9]: > 100 µM | TGI [10]: > 100 µM

Cc1ccc2c(c1C)C(=O)/C(=C/c1cccc(C)c1C(=O)O)C2
TGI [1]: > 91 µM | TGI [2]: > 90.7 µM | TGI [3]: > 100 µM | TGI [4]: > 65.2 µM | TGI [5]: > 100 µM | TGI [6]: > 100 µM | TGI [7]: > 100 µM | TGI [8]: > 100 µM | TGI [9]: > 100 µM | TGI [10]: > 100 µM

CC[C@@]1(O)C(=O)OCc2c1cc1n(c2=O)Cc2c-1nc1ccccc1c2/C=N\NC(=O)C(N)Cc1c[nH]c2ccccc12 (stereo not given in full)
TGI [1]: > 54 µM | TGI [2]: 3.27 µM | TGI [3]: > 48.9 µM | TGI [4]: > 55.7 µM | TGI [5]: > 100 µM | TGI [6]: 32.3 µM | TGI [7]: 17.3 µM | TGI [8]: > 100 µM | TGI [9]: 5.16 µM | TGI [10]: > 38 µM

COc1cc2c3c(cc(Cl)nc3c1OC)C(O)(CC(=O)c1ccccc1)C(=O)N2 (stereo not given)
TGI [1]: 3.66 µM | TGI [2]: 20.6 µM | TGI [3]: 4.04 µM | TGI [4]: 4.02 µM | TGI [5]: 3.65 µM | TGI [6]: 8.93 µM | TGI [7]: > 26.3 µM | TGI [8]: > 44.7 µM | TGI [9]: 32.7 µM | TGI [10]: 21.4 µM

O=C(NCCCCCN1CCC2(CCCCC2)CC1)C(C1CCCCC1)C1CCCCC1
TGI [1]: 12.2 µM | TGI [2]: 7.02 µM | TGI [3]: 3.26 µM | TGI [4]: 5.37 µM | TGI [5]: 3.51 µM | TGI [6]: 9.01 µM | TGI [7]: 4.71 µM | TGI [8]: 8.05 µM | TGI [9]: 8.53 µM | TGI [10]: 3.43 µM

O=C1C(c2c(O)[nH]c3ccc(S(=O)(=O)NCCO)cc23)=Nc2ccccc21
TGI [1]: 82.4 µM | TGI [2]: > 100 µM | TGI [3]: > 100 µM | TGI [4]: 6.53 µM | TGI [5]: > 100 µM | TGI [6]: 4.73 µM | TGI [7]: > 100 µM | TGI [8]: > 100 µM | TGI [9]: 12.9 µM | TGI [10]: > 100 µM

Cc1ccc(NC(=O)CC(=O)n2nc(C)c(N=Nc3cccc(C)c3)c2C)cc1
TGI [1]: > 100 µM | TGI [2]: > 100 µM | TGI [3]: > 100 µM | TGI [4]: > 100 µM | TGI [5]: > 100 µM | TGI [6]: > 100 µM | TGI [7]: > 100 µM | TGI [8]: > 100 µM | TGI [9]: > 100 µM | TGI [10]: > 100 µM

C=C1C(=O)OC2C3OC(C)(CCC(O)C3COC(C)=O)CC(OC(=O)/C(=C/C)COC(C)=O)C12 (stereo not given)
TGI [1]: 0.392 µM | TGI [2]: 0.342 µM | TGI [3]: 0.0763 µM | TGI [4]: 0.533 µM | TGI [5]: 0.645 µM | TGI [6]: 0.0749 µM | TGI [7]: 0.339 µM | TGI [8]: 0.261 µM | TGI [9]: 2.88 µM | TGI [10]: 1.96 µM

COC1CC(OC2C(C)OC(OC3C(C)OC(OC4C(C)OC(O[C@H]5CC[C@@]6(C)C(=CC[C@]7(O)[C@@H]6C[C@@H](O)[C@@]6(C)[C@]7(O)CC[C@@]6(O)C(C)=O)C5)CC4OC)CC3OC)CC2OC)OC(C)C1O (stereo not given in full)
TGI [1]: > 12.5 µM | TGI [2]: > 12.5 µM | TGI [3]: > 12.5 µM | TGI [4]: > 12.5 µM | TGI [5]: > 12.5 µM | TGI [6]: > 12.5 µM | TGI [7]: > 12.5 µM | TGI [8]: > 12.5 µM | TGI [9]: > 12.5 µM | TGI [10]: > 12.5 µM

Nc1cc2c3c(cccc3c1)C(=O)N(c1ccc(OCCN3CCCC3)cc1)C2=O
TGI [1]: 50.6 µM | TGI [2]: 48.5 µM | TGI [3]: 35.9 µM | TGI [4]: 31.5 µM | TGI [5]: 34.7 µM | TGI [6]: 30.7 µM | TGI [7]: 56.3 µM | TGI [8]: 97 µM | TGI [9]: 64.6 µM | TGI [10]: 31.5 µM

Cc1ccc(/C=C2\N=C(N3CCCC(CO)C3)NC2=O)cc1 (stereo not given)
TGI [1]: > 100 µM | TGI [2]: > 100 µM | TGI [3]: > 100 µM | TGI [4]: > 100 µM | TGI [5]: > 100 µM | TGI [6]: > 100 µM | TGI [7]: > 100 µM | TGI [8]: > 100 µM | TGI [9]: > 100 µM | TGI [10]: > 100 µM

O=[N+]([O-])/C(C(Cl)=C(Cl)Cl)=C(/Nc1ccccc1)Sc1ccccc1
TGI [1]: 68.3 µM | TGI [2]: 30.7 µM | TGI [3]: 31.8 µM | TGI [4]: 75.2 µM | TGI [5]: 56.3 µM | TGI [6]: 33.6 µM | TGI [7]: 66.1 µM | TGI [8]: 51.1 µM | TGI [9]: 27.7 µM | TGI [10]: 35.6 µM

N#Cc1nc(-c2cccc(-c3nc(C#N)c(N)o3)n2)oc1N
TGI [1]: > 100 µM | TGI [2]: > 100 µM | TGI [3]: > 100 µM | TGI [4]: > 100 µM | TGI [5]: > 100 µM | TGI [6]: > 100 µM | TGI [7]: > 100 µM | TGI [8]: > 100 µM | TGI [9]: > 100 µM | TGI [10]: > 100 µM

CCCCCCCCCCCCOP(=O)(O)OP(=O)(O)OCC1OC(n2cc(C)c(=O)[nH]c2=O)CC1O (stereo not given)
TGI [1]: > 100 µM | TGI [2]: > 100 µM | TGI [3]: > 100 µM | TGI [4]: > 100 µM | TGI [5]: > 100 µM | TGI [6]: > 100 µM | TGI [7]: > 100 µM | TGI [8]: > 100 µM | TGI [9]: > 100 µM | TGI [10]: > 100 µM
